Results: paper PMC4891710, “Unexpected involvement of staple leads to redesign of selective bicyclic peptide inhibitor of Grb7” (Scientific Reports, 2016)
“Also recorded” adds a separate entry of the source. Like-named read-outs stand apart in the source and are kept apart here. Blank lines part the entries; values can stand above or below the molecule they belong to. Positions of bridges follow the written chain, without caps; N, C: chain ends. Non-standard residues stand in square brackets, D forms with d. Residues, ends and D or L forms follow the SMILES beside them. Ser(allyl) = C=CCOC[C@H](N)C(=O)O

Legend:
[1] = biological target: T1, Grb7-SH2 domain (Homo sapiens, UniProt Q14451); set-up: Grb7-SH2 (encoding residues 415–532); made in house; host or cells: E. coli BL21 (DE3) pLysS; conditions: previously determined by ITC; cited from earlier work
[2] = biological target: T1, Grb7-SH2 domain; assay: SPR binding of G7 peptides to GST-Grb7-SH2 domain; conditions: for Kd: KD (equilibrium dissociation constant), steady-state equilibrium, single-site model, 50 mM sodium phosphate, 150 mM NaCl, 1 mM DTT, pH 7.4, 25 °C; for Bmax (maximum binding signal): fit to single-site saturation model
[3] = biological target: T2, Grb10-SH2 domain (Homo sapiens, UniProt Q13322); assay: SPR binding of G7-B4 to Grb10-SH2 domain
T2 construct: Grb10-SH2 (encoding residues 471–594); made in house; host or cells: E. coli BL21 (DE3) pLysS
T2 sequence (Q13322 471-594): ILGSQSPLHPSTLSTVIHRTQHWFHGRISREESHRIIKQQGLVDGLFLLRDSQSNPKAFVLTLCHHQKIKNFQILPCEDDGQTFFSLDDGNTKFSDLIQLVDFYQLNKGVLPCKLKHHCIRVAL
Excerpt: (§1) Previous studies have established the preferential binding of the G7-18NATE peptide to Grb7-SH2 over closely related SH2 domains (Grb10- and Grb14-SH2 domains that share 67% and 65% identity respectively, to the Grb7-SH2 and Grb2-SH2 (~26% identity) domain that shares the pYXN peptide recognition motif)[26]. In order to determine whether the bicyclic peptide G7-B4 retains its specificity for the Grb7-SH2 domain we measured the binding of G7-B4 to Grb2-, Grb10- and Grb14-SH2 domains using SPR. […] Therefore the binding of G7-B4 to Grb2-, Grb10- and Grb14-SH2 is over 130 times weaker than binding to Grb7-SH2 domain, showing that G7-B4 is highly specific for the Grb7-SH2 domain.
(§2) The pGEX2T plasmids with inserts containing Grb7-SH2 (encoding residues 415–532), Grb2-SH2 (encoding residues 58–160), Grb10-SH2 (encoding residues 471–594) and Grb14-SH2 (encoding residues 426–540) were kindly provided by Dr. Roger Daly. Glutathion-S-Transferase (GST)-Grb2-SH2, GST-Grb7-SH2, Grb-10-SH2 and GST-Grb14-SH2 were all expressed and purified as previously described. […] The free Grb7-SH2 used in crystallography was expressed as a GST-fusion protein and was purified by GST affinity, followed by thrombin cleavage to liberate free Grb7-SH2, and then purified by cation exchange chromatography, and size exclusion chromatography as previously described. […]

[4] = biological target: T3, Grb14-SH2 domain (Homo sapiens, UniProt Q14449); assay: SPR binding of G7-B4 to GST-Grb14-SH2 domain
T3 construct: Grb14-SH2 (encoding residues 426–540); made in house; host or cells: E. coli BL21 (DE3) pLysS
T3 sequence (Q14449 426-540): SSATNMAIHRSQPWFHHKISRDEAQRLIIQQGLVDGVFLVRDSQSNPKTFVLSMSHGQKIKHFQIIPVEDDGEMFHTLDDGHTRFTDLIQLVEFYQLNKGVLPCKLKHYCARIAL
Excerpt: as §1, §2

[5] = biological target: T4, Grb2-SH2 domain (Homo sapiens, UniProt P62993); assay: SPR binding of G7-B4 to GST-Grb2-SH2 domain
T4 construct: Grb2-SH2 (encoding residues 58–160); made in house; host or cells: E. coli BL21 (DE3) pLysS
Excerpt: as §1, §2

[6] = biological target: T5, GST-Grb7-SH2 (UniProt Q14451 415-532); assay: SPR; BIAcore T100; GST-SH2 proteins captured on anti-GST antibody on a CM5 chip, GST on the control cells; peptides 0-100 uM injected 60 s at 30 uL/min; 50 mM sodium phosphate, 150 mM NaCl, 1 mM DTT, pH 7.4; 25 C; KD from steady-state curves, single-site model; conditions: both partners purified
T5 construct: pGEX2T insert; GST fusion used in SPR, captured by an anti-GST antibody; also called Grb7-SH2 domain

[7] = biological target: T5, GST-Grb7-SH2; assay: as above; conditions: both partners purified; remark: listed apart in the source
[8] = SPR, no curvature up to 100 μM, saturation well below 50%

T4 sequence (P62993 58-160): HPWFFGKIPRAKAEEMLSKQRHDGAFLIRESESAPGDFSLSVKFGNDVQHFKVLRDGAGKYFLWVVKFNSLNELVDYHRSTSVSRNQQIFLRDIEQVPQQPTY
T1 sequence (Q14451 415-532): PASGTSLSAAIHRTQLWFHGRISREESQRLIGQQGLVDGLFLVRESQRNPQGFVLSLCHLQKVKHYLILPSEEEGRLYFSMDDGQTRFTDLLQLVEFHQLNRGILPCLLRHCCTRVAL
T5 sequence (Q14451 415-532): as above

Molecule: NC(=O)C[C@@H]1NC(=O)[C@H](CC(=O)O)NC(=O)[C@H](Cc2ccc(O)cc2)NC(=O)CNC(=O)[C@H](CCC(=O)O)NC(=O)[C@H](Cc2ccccc2)NC(=O)[C@@H]2COCC=CCOC[C@H](NC1=O)C(=O)N[C@@H](Cc1ccccc1)C(=O)N1CCC[C@H]1C(=O)N[C@H](C(N)=O)CSCC(=O)N2 [Peptide G7-B1] ({CH2CO}-[Ser(allyl)]FEGYDN[Ser(allyl)]FPC-NH2; staple 1-8; thioether N-11)
Kd [1]: 1.9 µM

Kd ([2]; SPR): 4.9 ± 0.03 µM | Bmax (maximum binding signal) ([2]; SPR): 53.47 ± 0.02 RU | times weaker affinity compared to G7-B1 ([2]; ratio of SPR KD values): approximately 3 times
Molecule: NC(=O)C[C@@H]1NC(=O)[C@H](CC(=O)O)NC(=O)[C@H](Cc2ccc(O)cc2)NC(=O)CNC(=O)[C@H](CCC(=O)O)NC(=O)[C@H](Cc2ccccc2)NC(=O)[C@@H]2COCC=CCOC[C@H](NC1=O)C(=O)N1CCC[C@H]1C(=O)N[C@H](C(N)=O)CSCC(=O)N2 [Peptide G7-B3] ({CH2CO}-[Ser(allyl)]FEGYDN[Ser(allyl)]PC-NH2; staple 1-8; thioether N-10)

Kd ([2]; SPR): 4.9 µM | Bmax (maximum binding signal) ([2]; SPR): 34.78 ± 0.01 RU | fold loss in binding affinity compared to G7-B4 ([2]; ratio of SPR KD values): 6 fold
Molecule: C=CCOC[C@@H]1NC(=O)CSC[C@@H](C(N)=O)NC(=O)[C@H](COCC=C)NC(=O)[C@H](CC(N)=O)NC(=O)[C@H](CC(=O)O)NC(=O)[C@H](Cc2ccc(O)cc2)NC(=O)CNC(=O)[C@H](CCC(=O)O)NC(=O)[C@H](Cc2ccccc2)NC1=O [Peptide G7-B4NS] ({CH2CO}-[Ser(allyl)]FEGYDN[Ser(allyl)]C-NH2; thioether N-9)

Kd [3, 8]: > 100 µM | times weaker binding than to Grb7-SH2 domain ([3]; selectivity Grb7-SH2 over Grb10-SH2): over 130 times | Kd [4, 8]: > 100 µM | times weaker binding than to Grb7-SH2 domain ([4]; selectivity Grb7-SH2 over Grb14-SH2): over 130 times | Kd [5, 8]: > 100 µM | times weaker binding than to Grb7-SH2 domain ([5]; selectivity Grb7-SH2 over Grb2-SH2): over 130 times
Molecule: NC(=O)C[C@@H]1NC(=O)[C@H](CC(=O)O)NC(=O)[C@H](Cc2ccc(O)cc2)NC(=O)CNC(=O)[C@H](CCC(=O)O)NC(=O)[C@H](Cc2ccccc2)NC(=O)[C@@H]2COCC=CCOC[C@H](NC1=O)C(=O)N[C@H](C(N)=O)CSCC(=O)N2 [Peptide G7-B4] ({CH2CO}-[Ser(allyl)]FEGYDN[Ser(allyl)]C-NH2; staple 1-8; thioether N-9)

Molecule: CH3-CO-NH2-(XFEGYDNX)-CONH2 where X = O-allylserine (Ac-[Ser(allyl)]FEGYDN[Ser(allyl)]-NH2; staple 1-8; SMILES CC(=O)N[C@H]1COCC=CCOC[C@@H](C(N)=O)NC(=O)[C@H](CC(N)=O)NC(=O)[C@H](CC(=O)O)NC(=O)[C@H](Cc2ccc(O)cc2)NC(=O)CNC(=O)[C@H](CCC(=O)O)NC(=O)[C@H](Cc2ccccc2)NC1=O) [Peptide G7-B1NT]
binding to Grb7-SH2 domain (in words) ([2]; SPR, peptide up to 100 μM): very weak binding; also recorded: dramatically reduced affinity

Kd [6]: 4.93 µM
B1: G7-B4NS (cyclo-(CH2CO-(XFEGYDNXC)-CONH2 where X = O-allylserine), without ring closing metathesis (peptide)
chain: {CH2CO}-[Ser(allyl)]FEGYDN[Ser(allyl)]C-NH2
modifications: thioether N-9
SMILES: C=CCOC[C@@H]1NC(=O)CSC[C@@H](C(N)=O)NC(=O)[C@H](COCC=C)NC(=O)[C@H](CC(N)=O)NC(=O)[C@H](CC(=O)O)NC(=O)[C@H](Cc2ccc(O)cc2)NC(=O)CNC(=O)[C@H](CCC(=O)O)NC(=O)[C@H](Cc2ccccc2)NC1=O

koff [7]: ~0.21 s⁻¹ | Kd [6]: 1.5 µM
B2: G7-B1 (cyclo-(CH2CO-(XFEGYDNXFPC)-CONH2 where X = O-allylserine) (peptide)
chain: {CH2CO}-[Ser(allyl)]FEGYDN[Ser(allyl)]FPC-NH2
modifications: staple 1-8; thioether N-11
SMILES: NC(=O)C[C@@H]1NC(=O)[C@H](CC(=O)O)NC(=O)[C@H](Cc2ccc(O)cc2)NC(=O)CNC(=O)[C@H](CCC(=O)O)NC(=O)[C@H](Cc2ccccc2)NC(=O)[C@@H]2COCC=CCOC[C@H](NC1=O)C(=O)N[C@@H](Cc1ccccc1)C(=O)N1CCC[C@H]1C(=O)N[C@H](C(N)=O)CSCC(=O)N2

koff [7]: ~0.25 s⁻¹ | Kd [6]: 0.83 µM
Molecule: {CH2CO}-[Ser(allyl)]FEGYDN[Ser(allyl)]C-NH2 (staple 1-8; thioether N-9) [G7-B4 (cyclo-(CH2CO-(XFEGYDNXC)-CONH2 where X = O-allylserine)]
